Measurements taken from ChEMBL document CHEMBL3301361, “Experimental in vitro DMPK and physicochemical data on a set of publicly disclosed compounds”.
In brackets after ≈: the same amount, converted by molar mass.

Assay: physchem
Details: pH 7.4 buffer

Row | solubility thermodynamic [µM] | Compound
1 | 70.8 (≈ 44.7 µg/mL) | COC1CCN(C(=O)C2CCN(CCc3c(-c4cc(C)cc(C)c4)[nH]c4sc(C(C)(C)C(=O)N5C6CCC5CC6)cc34)CC2)C1 (centres undefined)
2 | 269 (≈ 135 µg/mL) | CNC(=O)[C@@H](NC(=O)[C@H](CC(C)C)[C@H](OCc1cc2ccccc2n(C)c1=O)C(=O)NO)C(C)(C)C
3 | 0.3 (≈ 0.123 µg/mL) | CNC(=O)c1cc(COc2nnc(Nc3ccc(Cl)cc3)c3ccoc23)ccn1 [TELATINIB]
4 | 9.3 (≈ 3.17 µg/mL) | Cc1cc(C)c(N2C(=O)CC(Sc3ccccc3N)C2=O)c(C)c1 (centres undefined)
5 | 407 (≈ 122 µg/mL) | O=C(Nc1ccccc1)c1cc(-n2cnnc2)ccc1Cl
6 | 10.7 (≈ 4.85 µg/mL) | CN(C)C(=O)COc1cccc2ncnc(Nc3ccc4c(cnn4Cc4ccccn4)c3)c12
7 | 49 (≈ 10.7 µg/mL) | COc1ccc2oc(=O)c(C(C)=O)cc2c1
8 | 5.6 (≈ 2.85 µg/mL) | COc1cc(Nc2ncnc3[nH]nc(OCCN4CCC(O)CC4)c23)ccc1OCc1cccc(F)c1
9 | 10.7 (≈ 4.63 µg/mL) | COc1ccc2c(Oc3ccc(CC(=O)Nc4cnn(C)c4C)c(OC)c3)ccnc2c1
10 | 13.8 (≈ 6.84 µg/mL) | OC1CCN(CCOc2n[nH]c3ncnc(Nc4ccc(OCc5ccccn5)c(Cl)c4)c23)CC1
11 | 0.7 (≈ 0.244 µg/mL) | CCN1C(=O)C(C)(C)c2cc3[nH]c4c(c3cc21)CCCc1c-4n[nH]c1C
12 | 1 (≈ 0.401 µg/mL) | O=C(Nc1ccc(N2CCOCC2)nc1)c1nnc(Nc2ccc(Cl)cc2)o1
13 | 81.3 (≈ 25 µg/mL) | COc1ccc(-c2cnn(C3CCS(=O)(=O)C3)c2N)cc1 (centres undefined)
14 | 100 (≈ 47 µg/mL) | CN(C)C(=O)c1cc(-c2nc(N3CCOCC3)cc(C3(S(C)(=O)=O)CC3)n2)c2cc[nH]c2c1
15 | 85.1 (≈ 18.7 µg/mL) | Cc1ccc(/C=C2\SC(=O)NC2=O)cc1
16 | 1.7 (≈ 0.79 µg/mL) | COc1cc(OC2CN(C(C)=O)C2)ccc1Nc1ncc(Cl)c(-c2cnc3ccccn23)n1
17 | 1.6 (≈ 0.735 µg/mL) | COc1cc2ncnc(Oc3ccc(CC(=O)Nc4ccc(N(C)C)cn4)cc3)c2cc1OC
18 | 14.5 (≈ 6.69 µg/mL) | COc1cc(N2CCN(C(C)=O)CC2)ccc1Nc1ncc(F)c(-c2cnc3ccccn23)n1
19 | 3.3 (≈ 1.53 µg/mL) | C[C@@H]1CN(c2ncc(OCc3ccc(S(C)(=O)=O)cc3)cn2)CCN1C(=O)OC(C)(C)C
20 | 11 (≈ 3.8 µg/mL) | NC(=O)Nc1sc(-c2ccc(OC(F)(F)F)cc2)cc1C(N)=O
21 | 4.2 (≈ 1.99 µg/mL) | Cc1ccc(Oc2ccc(Nc3ncnc4cccc(O[C@H](C)C(=O)NCCO)c34)cc2C)cn1

Row | solubility thermodynamic [µM] | Compound
22 | 457 (≈ 266 µg/mL) | CNC(=O)[C@@H](NC(=O)[C@H](CC(C)C)[C@H](OCc1cc2c(=O)[nH]c(C)nc2cc1Br)C(=O)NO)C(C)(C)C
23 | 631 (≈ 224 µg/mL) | N#CCNC(=O)[C@@H]1CCCC[C@H]1C(=O)N1CCN(c2ccccc2)CC1
24 | 457 (≈ 134 µg/mL) | CNC(=O)Cc1ccc2c(=O)cc(-c3cccnc3)[nH]c2c1
25 | 0.9 (≈ 0.378 µg/mL) | CN(C)C(=O)[C@H](Cc1ccccc1)NC(=O)c1cc2cc(Br)sc2[nH]1
26 | 20 (≈ 4.59 µg/mL) | Clc1ccc(-c2cn3cccnc3n2)cc1
27 | 200 (≈ 43.7 µg/mL) | Cc1cnc(NC(=O)c2ccccn2)s1
28 | 6.8 (≈ 3.35 µg/mL) | Cc1cc(Nc2ncnc3[nH]nc(OCCN4CCC(O)CC4)c23)ccc1OCc1cccc(F)c1
29 | 1 (≈ 0.349 µg/mL) | Cc1ccccc1Oc1cc(-n2ncc(Cl)c(Cl)c2=O)ncn1
30 | 11.7 (≈ 5.02 µg/mL) | CC(=O)N(C1=C(NCCO)C(=O)c2ccccc2C1=O)c1cccc(Br)c1
31 | 676 (≈ 132 µg/mL) | c1ccc(-c2cn3cccnc3n2)cc1
32 | 2.3 (≈ 1.2 µg/mL) | Cc1ccc(Oc2ccc(Nc3ncnc4cccc(O[C@H](C)C(=O)N5CCOCC5)c34)cc2Cl)cn1
33 | 1020 (≈ 174 µg/mL) | Cc1[nH]c2ccccc2c1CC#N
34 | 3.2 (≈ 1.38 µg/mL) | CCn1cc(NC(=O)Cc2ccc(Oc3ccnc4cc(OC)ccc34)cc2OC)cn1
35 | 13.2 (≈ 4.35 µg/mL) | O=C(c1ccccc1)C1CCN(C(=O)c2c(F)cccc2F)CC1
36 | 72.4 (≈ 45.7 µg/mL) | Cc1cc(C)cc(-c2[nH]c3sc(C(C)(C)C(=O)N4C5CCC4CC5)cc3c2C(=O)CN2CCC(C(=O)N3CCOCC3)CC2)c1
37 | 44.7 (≈ 16.7 µg/mL) | CC1(C)CNc2cc(NC(=O)c3cccnc3NCc3ccncc3)ccc21 [MOTESANIB]
38 | 2.6 (≈ 0.968 µg/mL) | COc1cc2nccc(Nc3ccc(Oc4ccccc4)cc3)c2cc1OC
39 | 5.1 (≈ 2.17 µg/mL) | O=C(N[C@@H](Cc1ccccc1)C(=O)N1CCC(O)CC1)c1cc2cc(Cl)ccc2[nH]1
40 | 8.7 (≈ 3.37 µg/mL) | O=C(NC1CCCC1)C1CCCN(S(=O)(=O)c2cccc3cccnc23)C1 (centres undefined)
41 | 316 (≈ 75.3 µg/mL) | O=C1NCNC1(c1ccccc1)c1ccccc1 [DOXENITOIN]
42 | 190 (≈ 73.6 µg/mL) | C[C@H]1COCCN1c1cc(CS(C)(=O)=O)nc(-c2ccc3[nH]ccc3c2)n1

Row | Compound | solubility thermodynamic [µM]
43 | O=C(O)c1cc2cc(F)ccc2n1Cc1ccc(Cl)c(Cl)c1 | 209 (≈ 70.6 µg/mL)
44 | O=C(Nc1ccccc1)Nc1cnns1 [THIDIAZURON] | 178 (≈ 39.2 µg/mL)
